EC50 and IC50 data for 39 molecules are collected here from patent US20230339915A1 (Vertex Pharmaceuticals Incorporated, priority 2020, published 2023).

The target of assay [1] is NL20 human bronchial epithelial cells expressing human Z-AAT (Homo sapiens (Human), UniProt P01009, E366K). The assay can be described thus: AAT Function Assay (MSD Assay NL20-SI Cell Line). It counts as cell-based. The conditions noted are these: functionally active AAT (AAT-hNE complex, MSD) in supernatant of NL20 cells expressing human Z-AAT; read-out: NL20 Functional EC50. In outline:
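Secreted active Z-AAT was measured by MSD electrochemiluminescence: supernatants (45-fold total dilution) were incubated with human neutrophil elastase to form AAT–elastase complexes, captured by goat anti-AAT and detected with labelled anti-elastase. Cells were doxycycline-induced (0.1 μM) NL20 bronchial cells treated with compound overnight; M-AAT standard curve.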

Assay [2] addresses purified Z-AAT protein from human plasma (Homo sapiens (Human), UniProt P01009, E366K). The assay can be described thus: Biochemical Assay (Z-AAT Elastase Activity Assay). As to conditions: purified Z-AAT pre-incubated with compound 1 hour, then human neutrophil elastase and fluorescent substrate. In outline: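 Purified plasma Z-AAT (20 nM) preincubated with compounds 1 h at room temperature, then 3 nM human neutrophil elastase added in PBS + 0.01% BRIJ35 for 30 min to form suicide complex. Residual elastase activity read immediately by fluorescence after adding 300 μM MeOSuc-AAPV-AMC substrate solution.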

The EC50 is the concentration that produces a half-maximal response. A word on the IC50: it is the concentration that gives 50% inhibition.

Bounds are passed on as bounds.

NL20 human bronchial epithelial cells expressing human Z-AAT, sequence (P01009 25-418 E366K limits assumed): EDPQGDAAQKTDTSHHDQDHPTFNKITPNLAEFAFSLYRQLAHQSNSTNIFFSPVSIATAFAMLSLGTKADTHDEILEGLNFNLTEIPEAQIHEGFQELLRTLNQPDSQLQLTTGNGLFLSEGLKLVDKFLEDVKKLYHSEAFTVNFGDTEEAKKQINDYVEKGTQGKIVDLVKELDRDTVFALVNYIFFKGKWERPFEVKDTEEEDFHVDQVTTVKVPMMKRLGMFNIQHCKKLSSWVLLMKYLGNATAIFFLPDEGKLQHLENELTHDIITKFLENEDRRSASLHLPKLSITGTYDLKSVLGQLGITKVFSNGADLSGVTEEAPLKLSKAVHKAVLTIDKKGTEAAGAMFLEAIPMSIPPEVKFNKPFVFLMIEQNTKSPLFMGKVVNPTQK
purified Z-AAT protein from human plasma, sequence (P01009 25-418 E366K limits assumed): as above

Take `Cc1cc(-n2c(C(C)C)c(-c3cncc(C(=O)O)c3)c3cc(O)ccc32)ccc1F` [Compound 172]: in assay [1], the EC50 was in the range of 500 to 2000 nM. In addition, in assay [2], the concentration for half-maximal inhibition (IC50) was 2000 to 5000 nM.
The matching figures for `Cc1nccc(-n2c(C(C)C)c(-c3ccc(C(=O)O)cc3)c3cc(O)ccc32)n1` [Compound 174]: more than 2000 nM and more than 30000 nM.
For `Cc1cc(-n2c(C#N)c(-c3ccc(C(=O)O)cc3)c3cc(O)ccc32)ccc1F` [Compound 175], in assay [1], the EC50 fell in the range of 500 to 2000 nM. Further, the IC50 in assay [2] is more than 30000 nM.
The like results for `Cc1cc(-n2c(C(C)C)c(C(C)CC(=O)O)c3cc(O)ccc32)ccc1F` (stereo not drawn) [Compound 176] were, in that order, 500 to 2000 nM and more than 30000 nM.
The like results for `COCC(C)(C)c1c(-c2ccc(C(=O)O)cc2)c2cc(O)c(Cl)cc2n1-c1ccc(F)cc1` [Compound 177, 4-(6-chloro-1-(4-fluorophenyl)-5-hydroxy-2-(1-methoxy-2-methylpropan-2-yl)-1H-indol-3-yl)benzoic acid] were, in that order, less than 500 nM and less than 2000 nM.
The like results for `COCC(C)(C)c1c(-c2ccc(C(=O)O)cc2)c2c(Cl)c(O)ccc2n1-c1ccc(F)cc1` [Compound 178, 4-[4-chloro-1-(4-fluorophenyl)-5-hydroxy-2-(2-methoxy-1,1-dimethyl-ethyl)indol-3-yl]benzoic acid] were, in that order, less than 500 nM and less than 2000 nM.
Consider `Cc1cc(-n2c(C(C)C)c(-c3cc(C(=O)O)[nH]n3)c3cc(O)ccc32)ccc1F` [Compound 179, 3-[1-(4-fluoro-3-methyl-phenyl)-5-hydroxy-2-isopropyl-indol-3-yl]-1H-pyrazole-5-carboxylic acid], for which the EC50 in assay [1] is more than 2000 nM. In addition, the IC50 in assay [2] is more than 30000 nM.
The matching figures for `CC(C)c1c(-c2cccc(C(=O)O)c2)c2cc(O)ccc2n1C1CC(F)(F)C1` [Compound 180, 3-(1-(3,3-difluorocyclobutyl)-5-hydroxy-2-isopropyl-1H-indol-3-yl)benzoic acid]: more than 2000 nM and more than 30000 nM.
In the case of `Cc1cc(-n2c(C(C)C)c(/C=C/C(=O)O)c3cc(O)c(F)cc32)ccc1F` [Compound 181, (E)-3-(6-fluoro-1-(4-fluoro-3-methylphenyl)-5-hydroxy-2-isopropyl-1H-indol-3-yl)acrylic acid], the half-maximal effective concentration (EC50) in assay [1] was more than 2000 nM. The concentration for half-maximal inhibition (IC50) in assay [2] is more than 5000 nM.
The like results for `Cc1c(C2(C#N)CC2)c2cc(O)ccc2n1-c1ccc(F)cc1` [Compound 184, 1-(1-(4-fluorophenyl)-5-hydroxy-2-methyl-1H-indol-3-yl)cyclopropane-1-carbonitrile] were, in that order, more than 2000 nM and more than 5000 nM.
Turning to `CC(C)c1c(C#N)c2cc(O)ccc2n1-c1ccc(F)cc1` [Compound 185, 1-(4-fluorophenyl)-5-hydroxy-2-isopropyl-1H-indole-3-carbonitrile], the concentration for a half-maximal effect (EC50) in assay [1] is less than 500 nM. In addition, the half-maximal inhibitory concentration (IC50) in assay [2] was more than 30000 nM.
In the case of `CC(C)(C)c1c(C#N)c2cc(O)ccc2n1-c1ccc(F)cc1` [Compound 186], the EC50 in assay [1] was less than 500 nM. Besides, the IC50 in assay [2] was more than 5000 nM.
Turning to `Cc1cc(-n2c(C(C)C)c(C#N)c3cc(O)ccc32)ccc1F` [Compound 187], in assay [1], the EC50 is 500 to 2000 nM. Besides, the half-maximal inhibitory concentration (IC50) in assay [2] was more than 30000 nM.
As to `N#Cc1c(C2CCC2)n(-c2ccc(F)cc2)c2ccc(O)cc12` [Compound 188], in assay [1], the concentration for a half-maximal effect (EC50) was 500 to 2000 nM. Also, the IC50 in assay [2] is more than 30000 nM.
The matching figures for `C/C=C/c1c(C#N)c2cc(O)ccc2n1-c1ccc(F)cc1` [Compound 191, 1-(4-fluorophenyl)-5-hydroxy-2-[(E)-prop-1-enyl]indole-3-carbonitrile]: more than 2000 nM and more than 30000 nM.
The matching figures for `CCC(O)c1c(C#N)c2cc(O)ccc2n1-c1ccnc(C)c1` (stereo not drawn) [Compound 192, 5-hydroxy-2-(I-hydroxypropyl)-1-(2-methylpyridin-4-yl)-1H-indole-3-carbonitrile]: more than 2000 nM and more than 30000 nM.
Take `Cc1cc(-n2c(C(C)C)c(C#N)c3cc(O)c(F)cc32)ccc1F` [Compound 193, 6-fluoro-1-(4-fluoro-3-methylphenyl)-5-hydroxy-2-isopropyl-1H-indole-3-carbonitrile]: the EC50 in assay [1] was 500 to 2000 nM. Further, the IC50 in assay [2] is more than 30000 nM.
For `N#Cc1c(C2CCOCC2)n(-c2ccc(F)cc2)c2ccc(O)cc12` [Compound 194, 1-(4-fluorophenyl)-5-hydroxy-2-(tetrahydro-2H-pyran-4-yl)-1H-indole-3-carbonitrile], the EC50 in assay [1] was in the range of 500 to 2000 nM. Also, the IC50 in assay [2] is more than 30000 nM.
The like results for `CC(C)(C)OC(=O)N1CC(c2c(C#N)c3cc(O)ccc3n2-c2ccc(F)cc2)C1` [Compound 195] were, in that order, more than 2000 nM and more than 30000 nM.
The matching figures for `N#Cc1c(C2CNC2)n(-c2ccc(F)cc2)c2ccc(O)cc12` [Compound 196]: more than 2000 nM and more than 30000 nM.
The matching figures for `N#Cc1c(C2CCC2)n(-c2ccccc2)c2ccc(O)cc12` [Compound 197]: 500 to 2000 nM and more than 30000 nM.
As to `N#Cc1c(C2CCCO2)n(-c2ccc(F)cc2)c2ccc(O)cc12` (stereo not drawn) [Compound 198], the EC50 in assay [1] was more than 2000 nM. The half-maximal inhibitory concentration (IC50) in assay [2] is more than 30000 nM.
The like results for `CC(C)(C)OC(=O)N1CCC(c2c(C#N)c3cc(O)ccc3n2-c2ccc(F)cc2)CC1` [Compound 199] were, in that order, more than 2000 nM and more than 30000 nM.
Take `N#Cc1c(C2CCNCC2)n(-c2ccc(F)cc2)c2ccc(O)cc12` [Compound 200]: in assay [1], the concentration giving a half-maximal response (EC50) is more than 2000 nM. Further, the IC50 in assay [2] is more than 30000 nM.
The matching figures for `N#Cc1c(C2CCOCC2)n(-c2ccccc2)c2ccc(O)cc12` [Compound 202]: more than 2000 nM and more than 30000 nM.
The matching figures for `N#Cc1c(C2CC2)n(-c2ccc(F)cc2)c2ccc(O)cc12` [Compound 203]: less than 500 nM and more than 30000 nM.
The matching figures for `CCCn1c(C(C)C)c(C#N)c2cc(O)ccc21` [Compound 204, 5-hydroxy-2-isopropyl-1-propyl-1H-indole-3-carbonitrile]: more than 2000 nM and more than 30000 nM.
With `CCCn1c(C(C)(C)C)c(C#N)c2cc(O)ccc21` [Compound 205, 2-(tert-butyl)-5-hydroxy-1-propyl-1H-indole-3-carbonitrile], the EC50 in assay [1] was more than 2000 nM. Moreover, the half-maximal inhibitory concentration (IC50) in assay [2] was more than 30000 nM.
The matching figures for `CS(N)(=O)=Cc1c(C#N)c2cc(O)ccc2n1-c1ccc(F)cc1` (stereo not drawn) [Compound 206, 1-(3-cyano-1-(4-fluorophenyl)-5-hydroxy-1H-indol-2-yl)-S-methylmethanesulfinamide]: more than 2000 nM and more than 30000 nM.
The matching figures for `N#Cc1c(C2=S(N)(=O)CCC2)n(-c2ccc(F)cc2)c2ccc(O)cc12` (stereo not drawn) [Compound 207]: more than 2000 nM and more than 30000 nM.
The like results for `Cc1cc(-n2c(C)c(C#N)c3cc(O)cc(C)c32)ccc1F` [Compound 208, 1-(4-fluoro-3-methylphenyl)-5-hydroxy-2,7-dimethyl-1H-indole-3-carbonitrile] were, in that order, more than 2000 nM and more than 30000 nM.
For `Cc1cc2c(cc1O)c(C#N)c(C)n2-c1ccc(F)c(C)c1` [Compound 210], the EC50 in assay [1] is more than 2000 nM. The IC50 in assay [2] is more than 30000 nM.
`Cc1cc(-n2c(C)c(C#N)c3cc(O)c(N)cc32)ccc1F` [Compound 211, 6-amino-1-(4-fluoro-3-methylphenyl)-5-hydroxy-2-methyl-1H-indole-3-carbonitrile]: in assay [1], the concentration giving a half-maximal response (EC50) was more than 2000 nM. Moreover, in assay [2], the IC50 is more than 30000 nM.
Consider `Cc1cc(-n2c(C)c(C#N)c3cc(O)cc(N)c32)ccc1F` [Compound 212, 7-amino-1-(4-fluoro-3-methyl-phenyl)-5-hydroxy-2-methyl-indole-3-carbonitrile], for which the EC50 in assay [1] was more than 2000 nM. Further, in assay [2], the IC50 is more than 30000 nM.
The matching figures for `CNS(=O)(=O)N1CC(c2c(C(C)C)n(-c3ccc(F)c(C)c3)c3ccc(O)cc23)C1` [Compound 213, 3-(1-(4-fluoro-3-methylphenyl)-5-hydroxy-2-isopropyl-1H-indol-3-yl)-N-methylazetidine-1-sulfonamide]: more than 2000 nM and more than 5000 nM.
The matching figures for `CC(=O)NS(=O)(=O)N1CC(c2c(C(C)C)n(-c3ccc(F)c(C)c3)c3ccc(O)cc23)C1` [Compound 214, N-((3-(1-(4-fluoro-3-methylphenyl)-5-hydroxy-2-isopropyl-1H-indol-3-yl)azetidin-1-yl)sulfonyl)acetamide]: more than 2000 nM and more than 30000 nM.
The like results for `Cc1cc(-n2c(C(C)C)c([C@H]3C[C@@H](C#N)C3)c3cc(O)ccc32)ccc1F` [Compound 215, 3-[1-(4-fluoro-3-methyl-phenyl)-5-hydroxy-2-isopropyl-indol-3-yl]cyclobutanecarbonitrile] were, in that order, more than 2000 nM and more than 5000 nM.
As for `Cc1cc(-n2c(C(C)C)c([C@@H]3COC[C@@H]3C#N)c3cc(O)ccc32)ccc1F` [Compound 216], the EC50 in assay [1] is more than 2000 nM. Besides, the concentration for half-maximal inhibition (IC50) in assay [2] is more than 5000 nM.
The like results for `Cc1cc(-n2c(C(C)C)c([C@H]3C[C@@H](c4nn[nH]n4)C3)c3cc(O)ccc32)ccc1F` [Compound 217, 1-(4-fluoro-3-methyl-phenyl)-2-isopropyl-3-[3-(2H-tetrazol-5-yl)cyclobutyl]indol-5-ol] were, in that order, 500 to 2000 nM and more than 5000 nM.
